Assay results published in the NIST ThermoML archive (doi:10.1016/j.jct.2014.07.001).
Numbers after ± are expanded uncertainties.

Details: Drop volume

Row | SMILES | surface tension liquid-gas (293.15 K) | surface tension liquid-gas (303.15 K) | surface tension liquid-gas (313.15 K) | surface tension liquid-gas (323.15 K)
1 | CCC[n+]1ccccc1.F[B-](F)(F)F [1-propylpyridinium tetrafluoroborate] | 51.29 ± 0.61 mN/m | 50.51 ± 0.6 mN/m | 49.79 ± 0.59 mN/m | 49.03 ± 0.58 mN/m
2 | CCO [ethanol] | 22.28 ± 0.26 mN/m | 21.49 ± 0.25 mN/m | 20.66 ± 0.24 mN/m | 19.84 ± 0.23 mN/m
3 | CO [methanol] | 22.6 ± 0.26 mN/m | 21.81 ± 0.25 mN/m | 20.93 ± 0.24 mN/m | 20.05 ± 0.23 mN/m

More lines, now with the values ahead:

Row | surface tension liquid-gas (293.15 K) | surface tension liquid-gas (303.15 K) | surface tension liquid-gas (313.15 K) | surface tension liquid-gas (323.15 K) | SMILES
4 | 45.21 ± 0.54 mN/m | 44.48 ± 0.53 mN/m | 43.8 ± 0.52 mN/m | 43.24 ± 0.52 mN/m | CCCC[n+]1cccc(C)c1.F[B-](F)(F)F [1-butyl-3-methylpyridinium tetrafluoroborate]
5 | 45.82 ± 0.54 mN/m | 45.09 ± 0.54 mN/m | 44.41 ± 0.53 mN/m | 43.71 ± 0.52 mN/m | CCCC[n+]1ccc(C)cc1.F[B-](F)(F)F [1-butyl-4-methylpyridinium tetrafluoroborate]
6 | 46.9 ± 0.56 mN/m | 46.3 ± 0.55 mN/m | 45.69 ± 0.54 mN/m | 45.11 ± 0.54 mN/m | CCCC[n+]1ccccc1.F[B-](F)(F)F [1-butylpyridinium tetrafluoroborate]
